# Assay results published in patent publication USRE37781E1, “Substituted cyclic carbonyls and derivatives thereof useful as retroviral protease inhibitors” (DuPont Pharmaceuticals Company, priority 1991, dated 2002).
# Where two headings read alike, the source gives them in different places.
# Experiments:
# [1] = biological target: single-chain tethered dimer of HIV protease (Human immunodeficiency virus 1, UniProt P04585); test: biochemical; type: biochemical; parameters: fused on or other part: A second copy of the same protease unit is joined to the first by a short peptide tether, giving one polypeptide
# Protocol: HIV Protease Inhibition Assay—HPLC Method
# Active protease was prepared as described therein by extraction with 67% acetic acid, dilution 33-fold with water, dialysis against water and then against a “refolding buffer” consisting of 20 mM MES, 1 mM dithiothreitol and 10% glycerol. Protease was stored as a stock preparation at 10 uM in refolding buffer.
# Substrate: Peptide of sequence: aminobenzoyl-Ala-Thr-His-Gln-Val-Tyr-Phe(NO2)-Val-Arg-Lys-Ala containing p-nitrophenylalanine, was prepared by solid phase synthesis as previously described Cheng et al., op.cit. Stock solutions of 2 mM substrate were prepared in DMSO.
# Inhibitory compounds were dissolved in sufficient DMSO to make 3 mM stock solutions. All further dilutions were prepared in “assay buffer”: 1M NaCl, 50 mM MES, pH 5.5, 1 mM EDTA, 1 mM DTT, […] glycerol.
# Enzyme reaction: In a 2 ml screw-cap centrifuge tube were added 50 ul protease (final concentration 0.25 nM) and 0.1 ml inhibitory compound (final concentration […]). After 15 min preincubation at room temperature, the reaction was started with the addition of 0.05 ml substrate (final concentration 5 uM). Incubation was carried out at 30 C. for 1 hr. The reaction was stopped with 1 ml 0.1M ammonium hydroxide.
# HPLC measurement of product formation: The product (aminobenzoyl-Ala-Thr-His-Gln-Val-Tyr) was separated from substrate on a Pharmacia MonoQ anion exchange column. The injection volume was 0.2 ml. The mobile phases were: A (20 mM trisHCl, pH 9.0, 0.02% sodium Azide, 10% acetonitrile), B (20 mM tris HCl, pH 9.0, 0.02% sodium azide, 0.5M ammonium formate, 10% acetonitrile). The mobile phases were pumped at 1 ml/min, with a gradient from 0 to 30% B in 5 min, 100% B for 4 min to wash the column, and a re-equilibration for 4 min. The retention time of the product was 3.6 min. Detection with a Shimadzu model RF535 fluorescence monitor was at 330 nm (excitation) and 430 (emission).
# HIV-1 (RF) in MT-2 cells = test: microbe, parasite or virus in culture; type: cell-based; conditions: Human immunodeficiency virus 1, MT2, Table 1e; read-out: IC90
# Protocol: DNA Plasmids and in vitro RNA transcripts:
# Plasmid pDAB 72 containing both gag and pol sequences of BH10 (bp 113-1816) cloned into PTZ 19R was prepared according to Erickson-Viitanen et al. AIDS Research and Human Retroviruses 1989, 5, 577. The plasmid was linearized with Bam HI prior to the generation of in vitro RNA transcripts using the Riboprobe Gemini system II kit (Promega) with T7 RNA polymerase. Synthesized RNA was purified by treatment with RNase free DNAse (Promega), phenol-chloroform extraction, and ethanol precipitation. RNA transcripts were dissolved in water, and stored at −70° C. The concentration of RNA was determined from the A260.
# Biotinylated capture probes were purified by HPLC after synthesis on an Applied Biosystems (Foster City, Calif.) DNA synthesizer by addition of biotin to the 5′ terminal end of the oligonucleotide, using the biotin-phosphoramidite reagent of Cocuzza, Tet. Lett. 1989, 30, 6287. The gag biotinylated capture probe (5-biotin-[…] 3′) was complementary to nucleotides 889-912 of HXB2 and the pol biotinylated capture probe (5′-biotin-[…] 3′) was complementary to nucleotides 2374-2395 of HXB2. Alkaline phosphatase conjugated oligonucleotides used as reporter probes were prepared by Syngene (San Diego, Calif.). The pol reporter probe (5′ […] 3′) was complementary to nucleotides 2403-2425 of HXB2. The gag reporter probe (5′ […] 3′) was complementary to nucleotides 950-973 of HXB2. All nucleotide positions are those of the GenBank Genetic Sequence Data Bank as accessed through the Genetics Computer Group Sequence Analysis Software Package (Devereau Nucleic Acids Research 1984, 12, 387). The reporter probes were prepared as 0.5μM stocks in 2× SSC (0.3M NaCl, 0.03M sodium citrate), 0.05M Tris pH 8.8, 1 mg/mL BSA. The biotinylated capture probes were prepared as 10 μM stocks in water.
# Streptavidin coated plates:
# Nunc-immunomodule microtiter plate strips were coated by addition of 200 μL of streptavidin (30 ug/mL, Scripps, La Jolla, Calif.) in freshly prepared 10 mM sodium carbonate (pH 9.6). Plates were incubated overnight at 4° C. Streptavidin solution was aspirated from the wells and a blocking buffer composed of phosphate buffered saline (PBS), 20 mg/mL bovine serum albumin (crystalline, nuclease and protease free, Calbiochem) and 100 mg/mL lactose (Sigma) was added to the plates for 3 hrs at room temperature. Blocking buffer was removed from the wells, which were allowed to dry overnight at room temperature and subsequently stored at 4° C. in zip lock bags with desiccant. For the majority of the compound evaluation experiments, streptavidin coated plates were obtained from Du Pont Biotechnology Systems (Boston, Mass.).
# MT-2, CEM, and H9 cells were maintained in RPMI 1640 supplemented with 5% fetal calf serum (FCS), 2 mM L-glutamine and 50 μg/mL gentamycin, all from Gibco. Laboratory strains of HIV-1 (RF, MN and IIIB) were propagated in H9 cells in the same medium. Virus stocks were prepared approximately 1 month after acute infection of H9 cells by clarification of the tissue culture medium and storage of aliquots at −70° C. […] Each aliquot of virus stock used for infection was thawed only once. In some cases, infected H9 cells were shifted to Dulbecco's modified Eagle's medium 3-10 days before collection of virus in order to generate virus stocks in medium with low biotin content. Clinical isolates of HIV that had been passaged once in MT-2 cells were used to infect fresh MT-2 cells in RPMI medium. Three days after infection, cells were pelleted, resuspended and culture continued in Dulbecco's modified Eagle's medium as above. Virus stocks of clinical isolates were prepaid 10-15 days after infection when cytopathic effects were apparent in the culture.
# [2] = HIV protease inhibition, HPLC method, Table 2d, read-out: HPLC K1
smiles,measurement,setting,value
CCC(CC)CC1C(O)C(O)C(CC(CC)CC)N(Cc2ccccc2)C(=O)N1Cc1ccccc1 (stereo not drawn) [Example 16AM],Ki,"[1]; Table 2e, read-out: K4 HPLC",10 to 1000 nM
O=C1N(Cc2ccccc2)C(Cc2ccc3ccccc3c2)C(O)C(O)C(Cc2ccc3ccccc3c2)N1Cc1ccccc1 (stereo not drawn) [16K],Ki,"[1]; Table 2e, read-out: K4 HPLC",< 10 nM
O=C1N(CCCCCN2CCOCC2)C(Cc2ccccc2)C(O)C(O)C(Cc2ccccc2)N1CCCCCN1CCOCC1 (stereo not drawn) [15FM],Ki,"[1]; read-out: HPLC K1, HIV protease inhibition, HPLC method, Table 2d",> 1000 nM
CC(C)C1C(O)C(O)C(C(C)C)N(CC2CC2)C(=O)N1CC1CC1 (stereo not drawn) [Example 16D],Ki,"[1]; read-out: K4 HPLC, Table 2e",10 to 1000 nM
COC(=O)c1cccc(CN2C(=O)N(Cc3cccc(C(=O)OC)c3)C(Cc3ccccc3)C(O)C2CCc2ccccc2)c1 (stereo not drawn) [Example 8AQ],IC90,HIV-1 (RF) in MT-2 cells,> 100 µg/mL
COc1ccccc1CC1C(O)C(O)C(Cc2ccccc2OC)N(CC2CC2)C(=O)N1CC1CC1 (stereo not drawn) [Example 16S],Ki,"[1]; Table 2e, read-out: K4 HPLC",10 to 1000 nM
CSc1ccc(CC2C(O)C(O)C(Cc3ccc(SC)cc3)N(Cc3ccccc3)C(=O)N2Cc2ccccc2)cc1 (stereo not drawn) [Example 16Q],Ki,"[1]; Table 2e, read-out: K4 HPLC",< 10 nM
CC(=O)c1ccc(CN2C(=O)N(Cc3ccc(C(C)=O)cc3)C(Cc3ccccc3)C(O)C(O)C2Cc2ccccc2)cc1 (stereo not drawn) [20J],Ki,"[1]; Table 2i, read-out: HPLC Ki",10 to 1000 nM
C=CCOC1C(O)C(Cc2ccccc2)N(CC2CC2)C(=O)N(CC2CC2)C1Cc1ccccc1 (stereo not drawn) [Example 7AJ],Ki,"[1]; read-out: HPLC Ki, Table 1d, lower part",10 to 1000 nM
O=C1N(c2ccccc2)C(Cc2ccccc2)C(O)C(O)C(Cc2ccccc2)N1c1ccccc1 (stereo not drawn) [Example 14G],Ki,"[1]; read-out: HPLC K1, Table 2d, class symbols",10 to 1000 nM
O=C1NC(Cc2ccccc2)C(O)C(O)C(Cc2ccccc2)N1Cc1ccco1 (stereo not drawn) [Example 15FV],Ki,[1]; [2],< 10 nM
CC(CCCN1C(=O)N(CCCC(C)n2ccnc2)[C@H](Cc2ccccc2)[C@H](O)[C@@H](O)[C@H]1Cc1ccccc1)n1ccnc1 (stereo partly drawn) [15FK],Ki,[1]; [2],> 1000 nM
COc1cccc(CN2C(=O)N(Cc3cccc(OC)c3)C(Cc3ccccc3OC)C(O)C(O)C2Cc2ccccc2OC)c1 (stereo not drawn) [Example 16R],Ki,"[1]; Table 2e, read-out: K4 HPLC",10 to 1000 nM
O=C1N(Cc2ccccc2)C(CCc2ccccc2)C(O)C(O)C(CCc2ccccc2)N1Cc1ccccc1 (stereo not drawn) [Example 16A],Ki,"[1]; read-out: K4 HPLC, Table 2e",10 to 1000 nM
COC(=O)c1ccc(CN2C(=O)N(Cc3ccc(C(=O)OC)cc3)C(Cc3ccc(OC)cc3)C(O)C(O)C2Cc2ccc(OC)cc2)cc1 (stereo not drawn) [20AI],Ki,"[1]; Table 2i, read-out: HPLC Ki",> 1000 nM
O=C1N(CC2CC2)C(Cc2cccs2)C(O)C(O)C(Cc2cccs2)N1CC1CC1 (stereo not drawn) [16O],Ki,"[1]; Table 2e, read-out: K4 HPLC",< 10 nM
O=C1N(Cc2ccc(CO)o2)C(Cc2ccccc2)C(O)C(O)C(Cc2ccccc2)N1Cc1ccc(CO)o1 (stereo not drawn) [15FY],Ki,[1]; [2],10 to 1000 nM
O=C(NCc1cccnc1)c1cccc(CN2C(=O)N(CC3CC3)C(Cc3ccccc3)C(O)C(O)C2Cc2ccccc2)c1 (stereo not drawn) [15YD],Ki,"[1]; Table 2d, HIV protease inhibition, HPLC method, read-out: HPLC K1",< 10 nM
